Measured values taken from article PMC11435438, “Cyclin-Dependent Kinase 8 Represents a Positive Regulator of Cytomegalovirus Replication and a Novel Host Target for Antiviral Strategies” (Pharmaceutics, 2024).
Like-named read-outs stand apart in the source and are kept apart here.

Key:
[1] = Neutral Red uptake cell viability assay in mock-infected HFFs; type: cell-based; conditions: human, read-out: CC50 Mock-inf.
Procedure: (§1) To address cell viability after compound treatment, a NR uptake assay was performed. Uninfected cells were seeded at equal numbers as for antiviral replication assays and treated with compounds or solvent control. The treatment was performed for HFFs (7 d), U373 (14 d), A549 (3 d), J-Jhan (14 d), and non-dox-induced iSLK.219 cells (3 d). At the end of the treatment period, 40 µg/mL of Neutral Red (NR) was added and incubated for 2–4 h at 37 °C, before the NR-containing supernatant was removed. Cells were destained using a solution containing 50% ethanol, 1% acetic acid, and 49% water. NR fluorescence was quantified using the Victor X4 microplate reader (PerkinElmer, Waltham, MA, USA) (560/630 nm). For the AB cell viability assay, which was also used to quantify virus-induced cytopathogenicity (particularly in the case of GPCMV in GPEFs), cells were seeded at equal numbers as for antiviral replication assays and incubated with a medium containing 25 ng/mL AB (resazurin; Ann Arbor, MI, USA), incubated for 6 h at 37 °C, and used for measurement identical with NR.

[2] = tested on: HCMV Merlin-GFP; experiment: HCMV Merlin-GFP replication assay in HFFs; type: cell-based, human cytomegalovirus; conditions: Human betaherpesvirus 5, HFF, read-out: EC50 Merlin-GFP
Procedure: (§2) (i.e., 1 × TCID25/7d). Immediately after virus adsorption, the cells were treated with antiviral compounds or solvent control (DMSO). Infections were performed in biological quadruplicates, or as indicated for individual experiments. The cells were fixed by the addition of 150 µL 10% formalin/well 7 d p.i. (Merlin-GFP 14 d p.i.), and washed with PBS. For GFP or YFP quantitation, the Victor X4 microplate reader (PerkinElmer, Waltham, MA, USA) was primarily used, or as a very sensitive alternative, the ImageXpress® Pico device (Molecular Devices LLC, San Jose, CA, USA). Mean EC50 values of antiviral efficacy were calculated on the basis of three experimental replicates or as indicated (measurement of fluorescence values in quadruplicate), and percentage values were provided relative to the solvent control (DMSO).

[3] = tested on: MHV-68-Luc; experiment: MHV-68 replication assay in Vero cells; type: cell-based, murine herpesvirus 68; conditions: Murine herpesvirus, read-out: EC50 MHV-68
Procedure: (§3) Primary human foreskin fibroblasts (HFFs; obtained from clinical samples at Children’s Hospital in Erlangen, Germany), guinea pig embryonic fibroblasts (GPEFs; generously provided by Mark R. Schleiss from the University of Minnesota in Minneapolis, MN, USA), and rat embryonic fibroblasts were cultivated in Eagle’s Minimal Essential Medium (MEM) supplemented with 1 × GlutaMAX™ (both from Thermo Fisher Scientific, Waltham, MA, USA), 10 µg/mL gentamicin, and 10% fetal bovine serum (FBS; Capricorn, Ebsdorfergrund, Germany). Human glioblastoma–astrocytoma cell line (U373) and mouse embryonic fibroblasts (MEFs), both obtained from ATCC (Manassas, VA, USA), and Vero cell sublineage 76 [26], were cultivated in Dulbecco’s modified Eagle’s medium (DMEM) supplemented with 1 × GlutaMAX™, 10 µg/mL gentamicin, and 10% fetal bovine serum. All cultured cells were maintained under the conditions of 37 °C temperature, 5% CO2, and 80% humidity. The regular monitoring for the absence of mycoplasma contamination was conducted using Lonza™ Mycoalert™ (Thermo Fisher Scientific, Waltham, MA, USA). Cultured cell-based viral replication assays were performed by the use of the HCMV strain AD169 (variant U.K.), the recombinant HCMVs AD169-GFP expressing green fluorescent protein [27], TB40 IE2-YFP and TB40-FLuc expressing an IE2-YFP fusion protein or firefly luciferase (FLuc), and Merlin-GFP [31]. […]
(§4) A variety of antiherpesviral and non-herpesviral drug activities were assessed by the cell culture-based viral replication systems, as described elsewhere. […] After incubation at 37 °C for 3 days, iSLK.219 cells were fixed with 10% formalin, washed with PBS, and used for a quantitation of RFP reporter signal by PicoMD counting (ImageXpress® Pico device, Molecular Devices LLC, San Jose, CA, USA). […]

[4] = tested on: HCMV AD169-GFP; experiment: HCMV AD169-GFP replication assay in U373 cells; type: cell-based, human cytomegalovirus; conditions: Human betaherpesvirus 5, AD169, U373 MG, read-out: EC50 AD169-GFP
Procedure: as §2

[5] = tested on: VZV Oka-GFP; experiment: VZV replication assay in HFFs; type: cell-based, varicella zoster virus; conditions: Human alphaherpesvirus 3, read-out: EC50 VZV
Procedure: as §3, §4

[6] = Neutral Red uptake cell viability assay in mock-infected U373 cells; type: cell-based; conditions: human, read-out: CC50 Mock-inf.
Procedure: as §1

[7] = tested on: HAdV species C5 DBP-mneongreen; experiment: HAdV replication assay in A549 cells; type: cell-based; conditions: Human adenovirus sp., A549, read-out: EC50 HAdV
Procedure: as §3, §4

[8] = mock-infected (uninfected) HFFs
[9] = mock-infected (uninfected) U373 cells

## CN(C)C(=O)Cn1cc(-c2ccc(-c3cncc4ccccc34)cc2)cn1 [BI-1347]
[1]; [8]
  CC50 at 7 d: > 100000 nM
[2]
  EC50: 0.54 ± 0.99 nM
[3]
  EC50: 0.8 ± 1 nM
[4]
  EC50: 10.8 ± 5.73 nM
[5]
  EC50: 26000 ± 10000 nM
[6]; [9]
  CC50 at 14 d: > 100000 nM
[7]
  EC50: 50 ± 110 nM

## Cn1ncc2cc(-c3cnc(N)c(Cl)c3N3CCC4(CCNC4=O)CC3)ccc21 [CCT-151921]
[1]; HFF
  CC50 at 7 d: > 100000 nM
[2]
  EC50: 1.27 ± 1.17 nM
[3]
  EC50: 22 ± 19 nM
[4]
  EC50: 16.3 ± 7.13 nM
[5]
  EC50: 28000 ± 9000 nM
[6]; U373
  CC50 at 14 d: > 100000 nM
[7]
  EC50: 30 ± 30 nM

## Cc1n[nH]c2ncc(C(=O)N3CCC[C@H]3c3ccc(Cl)cc3)cc12 [MSC-2530818]
[1]; [8]
  CC50 at 7 d: > 100000 nM
[2]
  EC50: 5.55 ± 5.63 nM
[3]
  EC50: 2.5 ± 3 nM
[4]
  EC50: 18.5 ± 11.2 nM
[5]
  EC50: > 50000 nM
[6]; [9]
  CC50 at 14 d: 87000 ± 6000 nM
[7]
  EC50: 340 ± 260 nM
